Where a name gives a salt, the structure may show the parent alone.

Test [1] has as its system pentobarbital anaesthetized rats subject to coronary artery occlusion. As to conditions: rat, in vivo.
For test [2], the system named is pentobarbital anaesthetized rats. As to conditions: rat, in vivo.

As for `C=CCN1CC[C@]23c4c5ccc(O)c4O[C@H]2C(=O)CC[C@@]3(O)[C@H]1C5` [naloxone, naloxone hydrochloride], the “incidence of VF arrhythmias” value in test [1] is reported as “slightly decreased”. In test [2], the BP stood at 103±5, the HR worked out at 379±6, the PR was 57±1 and the QRS is listed as 29±1. The QT in test [2] was found to be 41±1.

For the origin of these results see EP0632806B1 (priority 1992, dated 1993).
